Test results published in US7138361B2, “Herbicidal heterocycles” (E. I. du Pont de Nemours and Company, priority 2000, dated 2006).

Key:
Assay type in all cases: in vivo
rice (Oryza saliva) = experiment: Test C flooded paddy test; settings: for Rice plant response rating: Flooded Paddy, scale 0 to 100, 0 no effect, 100 complete control; for Plant response rating, Rice: flooded paddy test, scale 0 to 100 (0 no effect, 100 complete control)
Procedure, shortened: (§1)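 Visual ratings (0 = no effect, 100 = complete control) were made 12–14 days after treatment, relative to greenhouse controls. Plants in the flooded paddy test were rice, smallflower flatsedge, duck salad and barnyardgrass, treated at the 2-leaf stage.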

[1] = system: barnyardgrass (Echinochloa crus-galli); experiment: Test C flooded paddy test; settings: for Barnyardgrass plant response rating: Flooded Paddy, scale 0 to 100, 0 no effect, 100 complete control; for Plant response rating, Barnyardgrass: flooded paddy test, scale 0 to 100 (0 no effect, 100 complete control)
Procedure, shortened: as §1

[2] = system: common ragweed (Ambrosia elatior); experiment: Test C preemergence
From the text: (§2) Seeds of plant species selected from bermudagrass (Cynodon dactylon), Surinam grass (Brachiaria decumbens), cocklebur (Xanthium strumarium), corn (Zea mays), crabgrass (Digitaria sanguinalis), woolly cupgrass (Eriochloa villosa), giant foxtail (Setaria faberii), goosegrass (Eleusine indica), johnsongrass (Sorghum halepense), kochia (Kochia scoparia), lambsquarters (Chenopodium album), morningglory (Ipomoea hederacea), yellow nutsedge (Cyperus esculentus), pigweed (Amaranthus retroflexus), common ragweed (Ambrosia elatior), soybean (Glycine max) and velvetleaf (Abutilon theophrasti) were planted and treated preemergence with test chemicals formulated in a non-phytotoxic solvent mixture which included a surfactant.
(§3) At the same time, plants selected from these crop and weed species and also winter barley (Hordeum vulgare), blackgrass (Alopecurus myosuroides), canary grass (Phalaris minor), chickweed (Stellaria media), downy brome (Bromus tectorum), green foxtail (Setaria viridis), Italian ryegrass (Lolium multiflorum), wheat (Triticum aestivum), wild oat (Avena fatua) and windgrass (Apera spica-venti) were treated with postemergence applications of some of the test chemicals formulated in the same manner. Plants ranged in height from 2 to 18 cm (1- to 4-leaf stage) for postemergence treatments. Plant species in the flooded paddy test consisted of rice (Oryza saliva), smallflower flatsedge (Cyperus difformis), duck salad (Heteranthera limosa) and barnyardgrass (Echinochloa crus-galli) grown to the 2-leaf stage for testing. Treated plants and controls were maintained in a greenhouse for 12 to 14 days, after which time all species were compared to controls and visually evaluated. Plant response ratings, summarized in Table C, are based on a scale of 0 to 100 where 0 is no effect and 100 is complete control. A dash (-) response means no test result.

[3] = system: goosegrass (Eleusine indica); experiment: Test C preemergence
From the text: as §2, §3

[4] = system: lambsquarters (Chenopodium album); experiment: Test C preemergence
From the text: as §2, §3

[5] = system: pigweed (Amaranthus retroflexus); experiment: Test C preemergence
From the text: as §2, §3

Sunflower = experiment: Test C preemergence; settings: Rate 125 g/ha; scale 0 to 100, 0 no effect, 100 complete control
From the text: as §2, §3

[6] = system: bermudagrass (Cynodon dactylon); experiment: Test C preemergence
From the text: as §2, §3

soybean (Glycine max) = experiment: Test C preemergence
From the text: as §2, §3

[7] = system: johnsongrass (Sorghum halepense); experiment: Test C preemergence
From the text: as §2, §3

[8] = system: cocklebur (Xanthium strumarium); experiment: Test C preemergence
From the text: as §2, §3

[9] = system: morningglory (Ipomoea hederacea); experiment: Test C preemergence
From the text: as §2, §3

[10] = system: woolly cupgrass (Eriochloa villosa); experiment: Test C preemergence
From the text: as §2, §3

[11] = system: crabgrass (Digitaria sanguinalis); experiment: Test C preemergence
From the text: as §2, §3

[12] = system: yellow nutsedge (Cyperus esculentus); experiment: Test C preemergence
From the text: as §2, §3

[13] = system: velvetleaf (Abutilon theophrasti); experiment: Test C preemergence
From the text: as §2, §3

[14] = system: giant foxtail (Setaria faberii); experiment: Test C preemergence
From the text: as §2, §3

corn (Zea mays) = experiment: Test C preemergence
From the text: as §2, §3

[15] = system: Surinam grass (Brachiaria decumbens); experiment: Test C preemergence
From the text: as §2, §3

kochia (Kochia scoparia) = experiment: Test C preemergence
From the text: as §2, §3

Nightshade = experiment: Test C preemergence
From the text: as §2, §3

[16] = Rate 125 g/ha, scale 0 to 100, 0 no effect, 100 complete control
[17] = preemergence, Rate 31 g/ha, scale 0 to 100
[18] = preemergence, Rate 62 g/ha, scale 0 to 100
[19] = preemergence, Rate 250 g/ha, scale 0 to 100, 0 no effect, 100 complete control

CC(C)OC(=O)c1cccc(N2CCC(n3ccc(C(C)(C)C)n3)C2=O)c1 (stereo not drawn) [Compound 124]
Rice plant response rating (rice (Oryza saliva); Rate 250 g/ha): 0
Rice plant response rating (rice (Oryza saliva); Rate 500 g/ha): 0
Plant response rating, Rice (rice (Oryza saliva); Rate 62 g/ha): 0
Plant response rating, Rice (rice (Oryza saliva); Rate 125 g/ha): 0
Barnyardgrass plant response rating ([1]; Rate 250 g/ha): 0
Barnyardgrass plant response rating ([1]; Rate 500 g/ha): 0
Plant response rating, Barnyardgrass ([1]; Rate 62 g/ha): 0
Plant response rating, Barnyardgrass ([1]; Rate 125 g/ha): 0
Plant response rating, Ragweed, Common [2, 16]: 0
Plant response rating, Ragweed, Common [2, 17]: 0
Plant response rating, Ragweed, Common [2, 18]: 0
Plant response rating, Ragweed, Common [2, 19]: 0
Plant response rating, Goosegrass [3, 16]: 40
Plant response rating, Goosegrass [3, 17]: 0
Plant response rating, Goosegrass [3, 18]: 0
Plant response rating, Goosegrass [3, 19]: 60
Plant response rating, Lambsquarters [4, 16]: 100
Plant response rating, Lambsquarters [4, 17]: 45
Plant response rating, Lambsquarters [4, 18]: 50
Plant response rating, Lambsquarters [4, 19]: 100
Plant response rating, Pigweed [5, 16]: 0
Plant response rating, Pigweed [5, 17]: 0
Plant response rating, Pigweed [5, 18]: 0
Plant response rating, Pigweed [5, 19]: 50
Plant response rating, Sunflower (Sunflower): 0
Plant response rating, Bermudagrass [6, 16]: 80
Plant response rating, Bermudagrass [6, 17]: 0
Plant response rating, Bermudagrass [6, 18]: 60
Plant response rating, Bermudagrass [6, 19]: 100
Plant response rating, Soybean (soybean (Glycine max); [16]): 0
Plant response rating, Soybean (soybean (Glycine max); [17]): 0
Plant response rating, Soybean (soybean (Glycine max); [18]): 0
Plant response rating, Soybean (soybean (Glycine max); [19]): 0
Plant response rating, Johnsongrass [7, 16]: 20
Plant response rating, Johnsongrass [7, 17]: 0
Plant response rating, Johnsongrass [7, 18]: 15
Plant response rating, Johnsongrass [7, 19]: 30
Plant response rating, Cocklebur [8, 16]: 0
Plant response rating, Cocklebur [8, 17]: 0
Plant response rating, Cocklebur [8, 18]: 0
Plant response rating, Cocklebur [8, 19]: 0
Plant response rating, Morningglory [9, 16]: 0
Plant response rating, Morningglory [9, 17]: 0
Plant response rating, Morningglory [9, 18]: 0
Plant response rating, Morningglory [9, 19]: 0
Plant response rating, Cupgrass, Woolly [10, 16]: 50
Plant response rating, Cupgrass, Woolly [10, 17]: 0
Plant response rating, Cupgrass, Woolly [10, 18]: 30
Plant response rating, Cupgrass, Woolly [10, 19]: 60
Plant response rating, Crabgrass [11, 16]: 100
Plant response rating, Crabgrass [11, 17]: 80
Plant response rating, Crabgrass [11, 18]: 90
Plant response rating, Crabgrass [11, 19]: 100
Plant response rating, Nutsedge [12, 16]: 0
Plant response rating, Nutsedge [12, 17]: 0
Plant response rating, Nutsedge [12, 18]: 0
Plant response rating, Nutsedge [12, 19]: 0
Plant response rating, Velvetleaf [13, 16]: 0
Plant response rating, Velvetleaf [13, 17]: 0
Plant response rating, Velvetleaf [13, 18]: 0
Plant response rating, Velvetleaf [13, 19]: 0
Plant response rating, Foxtail, Giant [14, 16]: 20
Plant response rating, Foxtail, Giant [14, 17]: 0
Plant response rating, Foxtail, Giant [14, 18]: 0
Plant response rating, Foxtail, Giant [14, 19]: 85
Plant response rating, Corn (corn (Zea mays); [16]): 0
Plant response rating, Corn (corn (Zea mays); [17]): 0
Plant response rating, Corn (corn (Zea mays); [18]): 0
Plant response rating, Corn (corn (Zea mays); [19]): 0
Plant response rating, Surinam grass [15, 16]: 0
Plant response rating, Surinam grass [15, 17]: 0
Plant response rating, Surinam grass [15, 18]: 0
Plant response rating, Surinam grass [15, 19]: 10
Plant response rating, Kochia (kochia (Kochia scoparia); [16]): 60
Plant response rating, Kochia (kochia (Kochia scoparia); [17]): 0
Plant response rating, Kochia (kochia (Kochia scoparia); [18]): 40
Plant response rating, Kochia (kochia (Kochia scoparia); [19]): 90
Plant response rating, Nightshade (Nightshade; Rate 31 g/ha, scale 0 to 100): 0
Plant response rating, Nightshade (Nightshade; Rate 62 g/ha, scale 0 to 100): 0
Plant response rating, Nightshade (Nightshade; [16]): 20
Plant response rating, Nightshade (Nightshade; Rate 250 g/ha, scale 0 to 100, 0 no effect, 100 complete control): 100
